Assay results from PubChem BioAssay (NCI).
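Each compound was tested at five concentrations against cells in 96-well plates for 48 hours. GI50 = concentration required for 50% inhibition of growth. Definition used: TGI = concentration required for complete inhibition of growth.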

Key:
Assay in all cases: NCI tumour cell line growth inhibition, 48 h
[1] = system: 786-0 renal
[2] = system: A498 renal
[3] = system: A549 NSCLC
[4] = system: ACHN renal
[5] = system: BT-549 breast
[6] = system: CAKI-1 renal
[7] = system: CCRF-CEM leukemia
[8] = system: COLO 205 colon
[9] = system: DU-145 prostate
[10] = system: EKVX NSCLC
[11] = system: HCC-2998 colon
[12] = system: HCT-116 colon
[13] = system: HCT-15 colon
[14] = system: HL-60(TB) leukemia
[15] = system: HOP-62 NSCLC
[16] = system: HOP-92 NSCLC
[17] = system: HS 578T breast
[18] = system: HT29 colon
[19] = system: IGROV1 ovarian
[20] = system: K-562 leukemia
[21] = system: KM12 colon
[22] = system: LOX IMVI melanoma
[23] = system: M14 melanoma
[24] = system: MALME-3M melanoma
[25] = system: MDA-MB-231 breast
[26] = system: MDA-MB-435
[27] = system: MOLT-4 leukemia
[28] = system: NCI-H226 lung
[29] = system: NCI-H23 lung
[30] = system: NCI-H460 lung
[31] = system: NCI-H522 lung
[32] = system: NCI/ADR-RES ovarian
[33] = system: OVCAR-3 ovarian
[34] = system: OVCAR-4 ovarian
[35] = system: OVCAR-5 ovarian
[36] = system: OVCAR-8 ovarian
[37] = system: PC-3 prostate
[38] = system: RPMI-8226 leukemia
[39] = system: RXF 393 renal
[40] = system: SF-268 CNS
[41] = system: SF-295 CNS
[42] = system: SF-539 CNS
[43] = system: SK-MEL-2 melanoma
[44] = system: SK-MEL-28 melanoma
[45] = system: SK-MEL-5 melanoma
[46] = system: SK-OV-3 ovarian
[47] = system: SN12C renal
[48] = system: SNB-19 CNS
[49] = system: SNB-75 CNS
[50] = system: SR leukemia
[51] = system: SW-620 colon
[52] = system: TK-10 renal
[53] = system: U251 CNS
[54] = system: UACC-257 melanoma
[55] = system: UACC-62 melanoma
[56] = system: UO-31 renal

## O=C1Nc2cc(-c3ccc(NS(=O)(=O)c4ccc(F)c(Cl)c4)cc3)ccc2/C1=C/c1ccc[nH]1
[1]
  GI50: 5.54 µM
  TGI: 27 µM
[2]
  GI50: 1.93 µM
  TGI: 15.5 µM
[3]
  GI50: 2.35 µM
  TGI: 16.8 µM
[4]
  GI50: 3.52 µM
  TGI: 14.6 µM
[5]
  GI50: 4 µM
  TGI: 26.3 µM
[6]
  GI50: 4.63 µM
  TGI: 18.6 µM
[7]
  GI50: 3.28 µM
  TGI: 18.9 µM
[8]
  GI50: 5.07 µM
  TGI: 18.9 µM
[9]
  GI50: 3.74 µM
  TGI: 15.2 µM
[10]
  GI50: 0.0918 µM
  TGI: 15.9 µM
[11]
  GI50: 3.23 µM
  TGI: 20.4 µM
[12]
  GI50: 3.57 µM
  TGI: 33.3 µM
[13]
  GI50: 3.46 µM
  TGI: 17.6 µM
[14]
  GI50: 3.34 µM
  TGI: 30.4 µM
[15]
  GI50: 10.3 µM
  TGI: 26.3 µM
[16]
  GI50: 4.68 µM
  TGI: 20.3 µM
[17]
  GI50: 2.96 µM
  TGI: 19.2 µM
[18]
  GI50: 3.31 µM
  TGI: 17.8 µM
[19]
  GI50: 11.4 µM
  TGI: 39.9 µM
[20]
  GI50: 3.79 µM
  TGI: > 100 µM
[21]
  GI50: 2.13 µM
  TGI: 7.6 µM
[22]
  GI50: 3.78 µM
  TGI: 16.2 µM
[23]
  GI50: 5.58 µM
  TGI: 27.2 µM
[24]
  GI50: 10.5 µM
  TGI: 23.2 µM
[25]
  GI50: 4.86 µM
  TGI: 21.3 µM
[26]
  GI50: 6.52 µM
  TGI: 25.8 µM
[27]
  GI50: 2.33 µM
  TGI: 16.1 µM
[28]
  GI50: 3.86 µM
  TGI: 26.1 µM
[29]
  GI50: 0.533 µM
  TGI: 8.49 µM
[30]
  GI50: 0.393 µM
  TGI: 1.98 µM
[31]
  GI50: 4.19 µM
  TGI: 22.4 µM
[32]
  GI50: 7.98 µM
  TGI: 29.9 µM
[33]
  GI50: 2.86 µM
  TGI: 17.1 µM
[34]
  GI50: 2 µM
  TGI: 18.8 µM
[35]
  GI50: 3.53 µM
  TGI: 19.4 µM
[36]
  GI50: 12.3 µM
  TGI: 32.1 µM
[37]
  GI50: 3.11 µM
  TGI: 18 µM
[38]
  GI50: 2.6 µM
  TGI: 21.9 µM
[39]
  GI50: 3.12 µM
  TGI: 16.6 µM
[40]
  GI50: 8.27 µM
  TGI: 29.2 µM
[41]
  GI50: 4.68 µM
  TGI: 23.2 µM
[42]
  GI50: 2.67 µM
  TGI: 14.9 µM
[43]
  GI50: 18.2 µM
  TGI: > 100 µM
[44]
  GI50: 6.91 µM
  TGI: 29.2 µM
[45]
  GI50: 11.3 µM
  TGI: 35.3 µM
[46]
  GI50: 4.07 µM
  TGI: 29.7 µM
[47]
  GI50: 11.8 µM
  TGI: 31 µM
[48]
  GI50: 13.7 µM
  TGI: 35.5 µM
[49]
  GI50: 0.95 µM
  TGI: 14.4 µM
[50]
  GI50: 2.2 µM
  TGI: 17.6 µM
[51]
  GI50: 3.46 µM
  TGI: 17 µM
[52]
  GI50: 5.8 µM
  TGI: 25.8 µM
[53]
  GI50: 11.5 µM
  TGI: 26.1 µM
[54]
  GI50: 3.96 µM
  TGI: 21.3 µM
[55]
  GI50: 4.9 µM
  TGI: 27.9 µM
[56]
  GI50: 3.22 µM
  TGI: 21 µM
